Measured values published in patent US7763624B2, “Substituted pyrazolo[3,4-d]pyrimidines as ACK-1 and LCK inhibitors” (Amgen Inc., priority 2005, dated 2010).
Where two headings read alike, the source gives them in different places.

Legend:
ACK1 = target: T1, ACK1 (Homo sapiens, UniProt Q07912); assay: ACK1 Enzymatic Assay (PGT/autophosphorylation ELISA); type: biochemical
T1 construct: a fusion of an N-terminal (His)6 Tag with amino acids 117 to 489 of ACK1; (His)6 (N); made in house; host or cells: baculovirus infected Hi-5 insect cells
Protocol: IC50 values of compounds of the invention may be assessed as follows. The ACK1 kinase assay utilizes a protein expressed in baculovirus infected Hi-5 cells (a fusion of an N-terminal (His)6 Tag with amino acids 117 to 489 of ACK1) purified by affinity chromatography on a Ni-NTA column. The substrate for the reaction is ACK1 itself (autophosphorylation) and poly-Glutamic acid-Tyrosine (PGT (4:1), Sigma catalog #PO275). The PGT is coated to Nunc 96 well plates at 80 μg/mL overnight at 4° C. The morning after coating, the plates are washed twice, and […] reaction buffer (10 mM Hepes, pH 7.6; 20 mM MgCl2; 75 mM NaCl, 0.125% TWEEN20 (polyoxyethylene sorbitan monolaurate); 1 mM DTT) with 5 μM ATP are added to each well. Test compounds are added in […] DMSO, and the reaction is started by addition of […] kinase in assay buffer. The reaction proceeds for 2 h at room temperature. Next, the plates are washed four times, and the level of tyrosine phosphorylation in a given well is quantified by standard ELISA assay utilizing a phosphotyrosine antibody (PY20, Pierce).

LCK = target: T2, LCK (Homo sapiens, UniProt P06239); assay: LCK-Homogeneous Time Resolved Fluorescent (HTRF) Kinase Assay; type: biochemical
T2 construct: 15 μL of LCK KD GST (225-509) for a final volume of 40 μL; GST
Protocol: LCK-Homogeneous Time Resolved Fluorescent (HTRF) Kinase Assay
The LCK HTRF assay begins with LCK in the presence of ATP phosphorylating the biotinylated peptide Gastrin. The reaction incubates for 90 min. To quench the assay detection reagents are added which both stop the reaction by diluting out the enzyme and chelating the metals due to the presence of EDTA. Once the detection reagents are added the assay incubates for 30 min to allow for equilibration of the detection reagents.
Buffer conditions are as follows: 50 mM HEPES pH 7.5, 50 mM NaCl, 20 mM MgCl2, 5 mM MnCl2, 2 mM DTT, 0.05% BSA.
The assay is quenched and stopped with 160 μL of a detection reagent. Detection reagents are as follows: Buffer made of 50 mM Tris, pH 7.5, 100 mM NaCl, 3 mM EDTA, 0.05% BSA, 0.1% Tween20.
The assay plate is read in either a Discovery or a RubyStar.

C8 cells = assay: ACK1 Cell Based Assay (survival under low serum, Cytotox One); settings: read-out: ACK1 Cell-based IC50
Protocol: ACK1 Cell Based Assay The ACK1 cell based assay is designed to find inhibitors of ACK1 kinase activity which would be prime candidates for the development of anticancer drugs. […] After 20 to 24 h incubation at 37° C. and 5% CO2, cell viability is determined using the Cytotox One kit (Promega) according to the manufacturer's instructions.

[1] = ACK1-dependent C8 cells, 0.125% FCS, 20 to 24 h

T2 sequence (P06239 225-509): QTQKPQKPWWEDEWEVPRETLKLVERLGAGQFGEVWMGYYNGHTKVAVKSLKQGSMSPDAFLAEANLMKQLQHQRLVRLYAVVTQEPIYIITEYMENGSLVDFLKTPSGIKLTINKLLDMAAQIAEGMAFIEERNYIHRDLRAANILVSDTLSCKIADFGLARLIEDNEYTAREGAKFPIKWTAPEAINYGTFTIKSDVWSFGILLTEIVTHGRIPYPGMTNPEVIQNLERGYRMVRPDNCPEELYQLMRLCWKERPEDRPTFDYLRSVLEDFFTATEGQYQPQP
T1 sequence (Q07912 117-489): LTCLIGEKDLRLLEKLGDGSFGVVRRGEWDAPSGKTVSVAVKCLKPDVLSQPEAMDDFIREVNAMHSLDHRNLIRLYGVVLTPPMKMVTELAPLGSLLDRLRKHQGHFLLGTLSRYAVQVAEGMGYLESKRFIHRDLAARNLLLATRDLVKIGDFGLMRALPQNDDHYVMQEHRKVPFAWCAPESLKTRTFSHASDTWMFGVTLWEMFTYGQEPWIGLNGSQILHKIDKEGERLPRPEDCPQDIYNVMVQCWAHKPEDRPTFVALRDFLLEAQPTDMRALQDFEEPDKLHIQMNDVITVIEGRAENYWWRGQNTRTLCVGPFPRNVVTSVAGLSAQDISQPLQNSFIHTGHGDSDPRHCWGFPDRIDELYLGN

Ki (ACK1) [nM]	Ki (LCK) [nM]	Compound	IC50 (C8 cells; [1]) [nM]	IC50 (C8 cells) [nM]
10 to 100	10 to 100	COC(C)(C)CCn1nc(Nc2c(C)cccc2C)c2cnc(Nc3ccc(OCCCN4CCCCC4)c(F)c3)nc21 [Compound 57]	10 to 100	
10 to 100	< 10	OCC(O)CCn1nc(Nc2c(Cl)cccc2Cl)c2cnc(Nc3ccccc3)nc21 (centres unmarked) [Compound 88, 4-(3-(2,6-dichlorophenylamino)-6-(phenylamino)-1H-pyrazolo[3,4-d]pyrimidin-1-yl)butane-1,2-diol]	10 to 100	
> 100	< 10	Cc1cccc(C)c1Nc1nn(CCCN2CCCCC2)c2nc(Nc3ccccc3)ncc12 [Compound 48, N^3-(2,6-Dimethyl-phenyl)-N^6-phenyl-1-(3-piperidin-1-yl-propyl)-1H-pyrazolo[3,4-d]pyrimidine-3,6-diamine]	> 100	
> 100	< 10	2-(3-(2,6-dimethylphenylamino)-6-(phenylamino)-1H-indazol-1-yl)-1-(4-methylpiperazin-1-yl)ethanone [Compound 70]	> 100	
< 10	< 10	COC(C)(C)CCn1nc(Nc2c(C)cccc2C)c2cnc(Nc3ccc(N4CCN(C)CC4)cc3)nc21 [Compound 55, N^3-(2,6-Dimethyl-phenyl)-1-(3-methoxy-3-methyl-butyl)-N-6-[4-(methylpiperazin-1-yl)phenyl]-1H-pyrazolo[3,4-d]pyrimidine-3,6-diamine]	10 to 100	
10 to 100	< 10	Cc1cccc(C)c1Nc1nn(CCCN2CCCCC2)c2nc(Nc3ccc(N4CCN(C)CC4)cc3)ncc12 [Compound 50, N^3-(2,6-Dimethyl-phenyl)-N^6-[4-(4-methyl-piperazin-1-yl)-phenyl]-1-(3-piperidin-1-yl-propyl)-1H-pyrazolo[3,4-d]pyrimidine-3,6-diamine]	10 to 100	
10 to 100	< 10	Cc1cccc(C)c1Nc1nn(CCN2CCOCC2)c2nc(Nc3ccc(N4CCN(C)CC4)cc3)ncc12 [Compound 53, N^3-(2,6-dimethyl-phenyl)-N^6-[4-(4-methyl-piperazin-1-yl)-phenyl]-1-(2-morpholin-4-yl-ethyl)-1H-pyrazolo[3,4-d]pyrimidine-3,6-diamine]	> 100	
< 10	< 10	Cc1cccc(C)c1Nc1nn(CC2CCOCC2)c2nc(Nc3ccc(OCCCN4CCCCC4)c(F)c3)ncc12 [Compound 62]	10 to 100	
10 to 100	< 10	COCCOc1ccc(Nc2ncc3c(Nc4c(C)cccc4C)nn(CCC(C)(C)OC)c3n2)cc1 [Compound 54, N^3-(2,6-Dimethyl-phenyl)-N-6-[4-(2-methoxy-ethoxy)-phenyl]-1-(3-methoxy-3-methyl-butyl)-1H-pyrazolo[3,4-d]pyrimidine-3,6-diamine]	> 100	
> 100	< 10	2-(3-(2,6-dimethylphenylamino)-6-(phenylamino)-1H-indazol-1-yl)-1-(piperazin-1-yl)ethanone [Compound 71]	> 100	
> 100	< 10	CCN(CC)CC(O)CCn1nc(Nc2c(C)cccc2C)c2cnc(Nc3ccccc3)nc21 (centres unmarked) [Compound 44, 1-(diethylamino)-4-(3-(2,6-dimethylphenylamino)-6-(phenylamino)-1H-pyrazolo[3,4-d]pyrimidin-1-yl)butan-2-ol]	> 100	
	< 10	COC(C)(C)CCn1nc(Nc2c(C)cccc2C)c2cnc(Nc3ccc(N4CCNCC4)cc3)nc21 [Compound 56, N^3-(2,6-Dimethyl-phenyl)-1-(3-methoxy-3-methylbutyl)-N^6-(4-piperazin-1-yl-phenyl)-1H-pyrazolo[3,4-d]pyrimidine-3,6-diamine]	< 10	

More lines, now with the values behind:

Compound	Ki (ACK1) [nM]	Ki (LCK) [nM]	IC50 (C8 cells; [1]) [nM]	IC50 (C8 cells) [nM]
(R)—N^3-(2,6-Dimethylphenyl)-1-(3-(2-(methoxymethyl)pyrrolidin-1-yl)propyl)-N^6-phenyl-1H-indazole-3,6-diamine [Compound 66]	> 100	< 10	> 100	
(R)—N^3-(2,6-Dimethylphenyl)-N^6-(4-fluorophenyl)-1-(3-(2-(methoxymethyl)pyrrolidin-1-yl)propyl)-1H-indazole-3,6-diamine [Compound 65]	> 100	< 10	> 100	
C=CCCn1nc(Nc2c(C)cccc2C)c2cnc(Nc3ccccc3)nc21 [Compound 33, 1-(but-3-enyl)-N^3-(2,6-dimethylphenyl)-N^6-phenyl-1H-pyrazolo[3,4-d]pyrimidine-3,6-diamine]	10 to 100	< 10	> 100	
Ethyl-2-(3-(2,6-dimethylphenylamino)-6-(phenylamino)-1H-indazole-1-yl)acetate [Compound 64]	10 to 100	< 10	> 100	
CNc1ncc2c(Nc3c(Cl)cccc3Cl)nn(CCC(C)(C)OC)c2n1 [Compound 83, N^3-(2,6-dichlorophenyl)-1-(3-methoxy-3-methylbutyl)-N^6-methyl-1H-pyrazolo[3,4-d]pyrimidine-3,6-diamine]	> 100	< 10		
COC(C)(C)CCn1nc(Nc2ccccc2)c2cnc(Nc3ccc(N4CCN(C)CC4)cc3)nc21 [Compound 75]	> 100	10 to 100		> 100
Cc1cccc(C)c1Nc1nn(CCC(O)CN(C)C)c2nc(Nc3ccccc3)ncc12 (centres unmarked) [Compound 43, 1-(dimethylamino)-4-(3-(2,6-dimethylphenylamino)-6-(phenylamino)-1H-pyrazolo[3,4-d]pyrimidin-1-yl)butan-2-ol]	10 to 100	< 10	> 100	
Cc1cccc(C)c1Nc1nn(CCCN2CCCC2)c2nc(Nc3ccccc3)ncc12 [Compound 41, N^3-(2,6-dimethylphenyl)-N^6-phenyl-1-(3-(pyrrolidin-1-yl)propyl)-1H-pyrazolo[3,4-d]pyrimidine-3,6-diamine]	10 to 100	< 10	> 100	
COC(C)(C)CCn1nc(Nc2c(C)cc(F)cc2C)c2cnc(Nc3ccccc3)nc21 [Compound 78, N^3-(4-Fluoro-2,6-dimethyl-phenyl)-1-(3-methoxy-3-methyl-butyl)-N^6-phenyl-1H-pyrazolo[3,4-d]pyrimidine-3,6-diamine]	10 to 100	< 10		> 100
CCN(CC)CCCn1nc(Nc2c(C)cccc2C)c2cnc(Nc3ccccc3)nc21 [Compound 40, 1-(3-(diethylamino)propyl)-N^3-(2,6-dimethylphenyl)-N^6-phenyl-1H-pyrazolo[3,4-d]pyrimidine-3,6-diamine]	10 to 100	< 10	> 100	
COC(C)(C)CCn1nc(Nc2c(C)cccc2C)c2ccc(Nc3ccccc3)cc21 [Compound 59]	< 10	< 10	10 to 100	
N^3-(2,6-Dimethylphenyl)-N^6-phenyl-1-((tetrahydro-2H-pyran-4-yl)methyl)-1H-indazole-3,6-diamine [Compound 63]	10 to 100	< 10	> 100	
Cc1cccc(C)c1Nc1nn(CCCO)c2nc(Nc3ccccc3)ncc12 [Compound 37, 3-(3-(2,6-dimethylphenylamino)-6-(phenylamino)-1H-pyrazolo[3,4-d]pyrimidin-1-yl)propan-1-ol]	10 to 100	< 10	> 100	
Cc1cccc(C)c1Nc1nn(CCN2CCOCC2)c2nc(Nc3ccccc3)ncc12 [Compound 51, N^3-(2,6-Dimethyl-phenyl)-1-(2-morpholin-4-yl-ethyl)-N^6-phenyl-1H-pyrazolo[3,4-d]pyrimidine-3,6-diamine]	10 to 100	< 10		> 100
CNc1ncc2c(Nc3c(Cl)cccc3Cl)nn(CCC(C)(C)OC)c2n1 [Compound 90, N^3-(2,6-dichlorophenyl)-1-(3-methoxy-3-methylbutyl)-N^5-methyl-1H-pyrazolo[3,4-d]pyrimidine-3,6-diamine]			> 100	
